Experimental data: patent publication US20240358726A1, “SPECIFIC T[…] MARIJUANA DOSES FOR STRESS AND PAIN” (Yale University, priority 2021, published 2024)

Legend:
Format in all cases: in vivo, human
[1] = tested on: recreational marijuana users; test: Wanting More Drug rating (drug craving) after acute dose; settings: adjusted for baseline
From the text: (§1) FIGS. 2A-2D: Blood Pressure, Pulse and Wanting More Drug Rating, adjusted for Baseline.
(§2) Sessions were completed one-week apart to allow for an adequate washout period between sessions.

[2] = Blood pressure and pulse after acute dose (Example 1 safety study); settings: recreational marijuana users
From the text: as §1, §2
(§3) The first study was directed towards assessing safety of the THC and CBD doses in healthy, recreational cannabis users. […] The novel pain provocation experimental method allowed for detection of this effect within this first safety protocol assessment.

[3] = Plasma levels of CBD and THC after acute dose (Example 1 cross-over study); settings: over the course of 4.45 hours (285 minutes), recreational marijuana users
Protocol: FIGS. 1A-1B: Plasma levels of CBD and THC—adjusted for baseline, for each of the dose conditions over the course of […] (285 minutes).
as §2

[4] = tested on: recreational marijuana users; test: Provoked pain and anxiety ratings during adapted CPT protocol; settings: versus 40 CBD+20 THC, 100 CBD alone and 40 CBD alone; CBD alone versus CBD with low doses of THC (4:1 and 3:1)
From the text: FIGS. 3A-3B: Provoked average pain and anxiety (adjusted for baseline) ratings during adapted CPT protocol.
as §2, §3

Structure (SMILES) | average drug craving (want more drug), relative to placebo [1] | diastolic BP adjusted for baseline, relative to placebo [2] | plasma CBD levels adjusted for baseline, relative to placebo [3] | plasma THC levels adjusted for baseline, relative to placebo [3] | reducing pain and stress responses, comparison between dose conditions [4]
C=C(C)[C@@H]1CCC(C)=C[C@H]1c1c(O)cc(CCCCC)cc1O [CBD100, cannabidiol] | significantly reduced | significantly increased | significantly increased | not | –
C=C(C)[C@@H]1CCC(C)=C[C@H]1c1c(O)cc(CCCCC)cc1O [CBD40, cannabidiol] | significantly reduced | – | – | not | –
C=C(C)[C@@H]1CCC(C)=C[C@H]1c1c(O)cc(CCCCC)cc1O [CBD, cannabidiol] | – | – | – | – | not as effective
